Article PMC6410416 (Marine Drugs, 2019)

Molecular target: T1, Ps-Mn-SOD (Paelopatides sp. YL-2018, UniProt A0A411L1L4)
T1 construct: ORF 255 residues, signal peptide deleted; 6xHis tag (pCold II), E. coli pG-KJE8/BL21, Ni-NTA; about 30 kDa subunit, dimer about 60 kDa; C-terminal peptide (from primer) PSKHEEL
T1 sequence (A0A411L1L4 22-255): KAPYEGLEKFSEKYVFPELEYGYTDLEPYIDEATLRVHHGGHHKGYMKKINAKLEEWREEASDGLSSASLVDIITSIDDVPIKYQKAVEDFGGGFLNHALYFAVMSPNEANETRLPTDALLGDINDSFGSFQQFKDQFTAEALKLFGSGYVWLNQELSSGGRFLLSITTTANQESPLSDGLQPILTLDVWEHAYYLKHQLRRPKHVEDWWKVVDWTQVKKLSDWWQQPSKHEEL
Experiment: SOD assay kit, inhibition of chromogen production at […] nm
Assay type: biochemical
Conditions: superoxide generated in situ; turnover only

SMILES: [O]O [superoxide]
- SOD assay kit, inhibition of chromogen production at 550 nm: SOD activity was determined via spectrophotometric method using the SOD assay kit
